Results as given in patent US9738612B2, “Methylacryloyl benzimidazolone derivative and anti-tumour use thereof” (SHANGHAI NATURE STANDARD R&D AND BIOTECH CO., LTD, priority 2014, dated 2017).
“Also recorded” adds a separate entry of the source.

Legend:
Assay type in all cases: cell-based
[1] = system: A549; test: Sulforhodamine B proliferation; settings: SRB; for inhibition at 10 µM: Homo sapiens, A549, 72 h, read-out: Inhibitory rate % (A549); for Inhibitory rate % (A549): 10 μM, 72 h
Procedure: (§1) At a certain density cells were seeded in 96-well plates, and adhered overnight. The medium was discarded after incubating cells with compounds to be tested for 72 h, then 100μL/well trichloroacetic acid (TCA) was added to fix cells at 4° C. for 2h. After that the fixing solution was discarded. Cells were gently washed 5 times with distilled water, dried at room temperature. Cells were stained with 4 mg/mL SRB staining solution (100 μL/well) at room temperature for 15min. The staining solution was discarded, and cells were washed five times with 1% acetic acid (HAC) and dried at room temperature. To the plate tris base buffer (10 mM) was added at 150 μL/well and placed at room temperature for 15min. The OD values were measured at 540 nm wavelength in a microplate reader. Inhibitory rate (%)=(OD valuecontrol wells−OD valuedrugs treated wells)/OD valuecontrol wells×100%.
(§2) The results were shown in Table 2, the working concentrations of MK2206 and compounds of FD series were 10 μM. As shown in this Table, PC-3 is a prostate cancer cell line purchased from Cell Resource Center of Shanghai Institutes for Biological Sciences, Chinese Academy of Sciences, A549 is a lung cancer cell line purchased from Cell Resource Center of Shanghai Institutes for Biological Sciences, Chinese Academy of Sciences, and SGC-7901 is a gastric cancer cell line purchased from Cell Resource Center of Shanghai Institutes for Biological Sciences, Chinese Academy of Sciences.

[2] = system: PC-3; test: Sulforhodamine B proliferation; settings: SRB; for inhibition at 10 µM: Homo sapiens, PC-3, 72 h, read-out: Inhibitory rate % (PC-3); for inhibition at 10 µM / Inhibitory rate % (PC-3): 72 h
Procedure: as §1, §2

[3] = system: SGC-7901; test: Sulforhodamine B proliferation; settings: SRB; for inhibition at 10 µM: Homo sapiens, SGC-7901, 72 h, read-out: Inhibitory rate % (SGC-7901); for Inhibitory rate % (SGC-7901): 10 μM, 72 h
Procedure: as §1, §2

[4] = system: Akt phosphorylation at S473 site; test: ELISA (double antibody sandwich), Akt phosphorylation in IGF-1 stimulated A549 cells; settings: for Inhibitory rate % (Akt phosphorylation): drug 1 h, then IGF-1 10 min, p-Akt (S473) ELISA; for Effect on Akt phosphorylation compared with positive control: ELISA, in words
Procedure: Establishment of ELISA screening method using a double antibody sandwich method: A549 cells (a lung cancer cell line, purchased from Chinese Academy of Sciences, Shanghai Institutes for Biological Sciences Cell Resource Center) were inoculated at certain densities in 12-well plates, and incubated at 37° C. in a carbon dioxide incubator overnight to let cells attach the plate wells. Meanwhile the Akt antibody was inoculated at a specific concentration in a highly-adsorbed microplate, and placed in a refrigerator at 4° C. The 12-well plates were washed with sterile PBS three times, then into which serum-free F12 was added, and incubated for 24 hours in a incubator. Then MK2206, Triciribine and FD series drugs were added into 12-well plates and worked for one hour, followed by adding 100 ng of IGF-1 and being stimulated for 10 minutes. The 12-well plates were washed with pre-cooled PBS three times, and 100 μl of RIPA lysis buffer was added into each well to lyse cells on ice for 20 minutes. The lysates were collected and added to the appropriate microplate (purchased from Santa Cruz biotechnology), which were shaken on ice. A p-Akt (S473) antibody (purchased Cell Signaling Technology, Inc.) was added into microplates. After shaking for a period of time, an anti-rabbit antibody (purchased from Cell Signaling Technology, Inc.) was added. The reaction was terminated with 2M sulfuric acid after TMB developed. Absorbance at 450 nm was measured on a microplate reader, and the inhibitory rate=[…], among which ODsample refers to the absorbance of the sample well, ODIGF refers the absorbance of the well with IGF only, OD—IGF refers the absorbance of the well withoutIGF.

[5] = system: p-Akt (S473); test: Western blot, p-Akt (S473) in IGF stimulated A549 cells; settings: compound 1 h, IGF 10 min, FIG. 1, in words
Procedure: A549 cells were seeded at a density of 2×10^5 cells/well into 12-well plates, and adhered overnight. Then the medium was discarded and the plates were washed three times with normal saline. After that, fresh serum-free medium was added to starve cells for 24 hours, compounds to be tested were added to work for 1 h, then IGF-I was added to stimulated for 10 min, followed byadding a lysis buffer on ice to lyse for half an hour. The cell lysates were collected and centrifuged at 20000×g at 4° C. for 10min, then the supernatant was collected. Protein was quantified by MicroBCA protein quantification Assay kit, and the protein concentration was normalized. The supernatant was mixed with the 4×SDS sample buffer [200 mM Tris.Cl (pH 6.8), 400 mM DTT, 8% SDS, 0.4% bromophenol blue, 40% glycerol] and boiled for 15 min. After cooling at room temperature, aliquots were loaded on polyacrylamide gel, and electrophoresed in Tris-glycine electrophoretic buffer (25 mM Tris, 250 mM glycine, 0.1% SDS) at 80-120 V for about 2 h. Proteins were transferred from the gel to a nitrocellulose membrane by a semi-dry method. Transferring conditions: transfer buffer (39 mM glycine, 48 mM Tris base, 0.037% SDS, 20% methanol); transfer current 25 mA; transfer time 2 h. After transfer, Ponceau S staining was used to determine the transfer efficiency and the positions of protein bands on the nitrocellulose membranes. After labeling the membrane was blocked with a blocking solution containing 5% nonfat-dried milk [5% nonfat-dried milk, 20 mM Tris-HCl (pH 7.2-7.4), 150 mM NaCl, 0.1% (v/v) Tween 20] on a shaker at room temperature for 2 h. To the system were added specific primary antibodies and incubated overnight at 4° C. Then the membrane was washed with PBST solution [20 mM Tris-HCl (pH 7.2-7.4), 150 mM NaCl, 0.1% (v/v) Tween 20] at room temperature three times, 15 min/time. To the system were added Horseradish peroxidase-labeled secondary antibodies and incubated at room temperature on a shaker with gentle shaking for 2 h. After washing with PBST solution three times, the system was exposed, developed and fixed after SuperSignal West Dura Chemiluminescent Substrate (Pierce Inc, Rochford, IL) was used for color. The results were shown in FIG. 1, in which there were 12 lanes the band shade and size of which indicated the corresponding protein concentration levels. […] MK2206 was an Akt phosphorylation inhibitor developed by Merck, and was currently in phase II clinical trial, showing good therapeutic effects in a variety of tumors.

Row | SMILES | inhibition at 10 µM [1] | inhibition at 10 µM [2] | inhibition at 10 µM [3] | Inhibitory rate % (Akt phosphorylation) [4] | Inhibitory rate % (A549) [1] | Inhibitory rate % (PC-3) ([2]; 10 μM) | Inhibitory rate % (SGC-7901) [3] | Effect on Akt phosphorylation level (p-Akt S473 band) [5] | Effect on Akt phosphorylation compared with positive control [4] | Inhibiting effect on PC-3 tumor cells (PTEN deficient) proliferation relative to other lines ([2]; 10 μM, in words)
1 | C=C(C)n1c(=O)n(C(=O)CCCCCCC)c2cc([N+](=O)[O-])ccc21 [FD16] | 23.2% | 7.1% | 12.4% | 64% | – | – | – | – | – | –
2 | NC1(c2ccc(-c3nc4ccn5c(=O)[nH]nc5c4cc3-c3ccccc3)cc2)CCC1 [MK2206, reference compound] | – | – | – | 92% | 61.0% | 1.2% | 24.3% | significantly reduce the Akt phosphorylation level; also recorded: significantly inhibited the increase of Akt phosphorylation level stimulated by IGF | – | –
3 | C=C(C)n1c(=O)n(C(=O)CCC)c2cc([N+](=O)[O-])ccc21 [FD12] | – | – | – | 48% | 3.8% | 8.2% | 19.8% | – | comparable effects with that of Triciribine | –
4 | C=C(C)n1c(=O)n(C(=O)CCCCCCC)c2ccc([N+](=O)[O-])cc21 [FD15] | 33.3% | 4.6% | 20.1% | 42% | – | – | – | – | – | –
5 | C=C(C)n1c(=O)n(C(=O)CC)c2cc([N+](=O)[O-])ccc21 [FD4] | 7.2% | 33.9% | 22% | 50% | – | – | – | – | comparable effects with that of Triciribine | –
6 | C=C(C)n1c(=O)n(C(=O)CCC)c2cc([N+](=O)[O-])ccc21 [FD10] | 5.3% | 13.8% | 28.1% | 17% | – | – | – | – | – | –
7 | C=C(C)n1c(=O)n(C(C)=O)c2ccc([N+](=O)[O-])cc21 [FD1] | – | 51.1% | – | 85% | 9.6% | – | 56.4% | significantly reduce the Akt phosphorylation level; also recorded: comparable effects to MK2206 | – | more significant
8 | C=C(C)n1c(=O)n(C(=O)CCC)c2ccc([N+](=O)[O-])cc21 [FD9] | – | 26.1% | 26.4% | 22% | 1.1% | – | – | – | – | –
9 | C=C(C)C(=O)n1c(=O)n(C(=C)C)c2ccc([N+](=O)[O-])cc21 [FD8] | 2.8% | 13.4% | 28% | 3% | – | – | – | – | – | –
10 | C=C(C)n1c(=O)n(C(C)=O)c2ccc([N+](=O)[O-])cc21 [FD2] | – | – | – | 51% | 3.4% | 32.4% | 23.4% | – | comparable effects with that of Triciribine | –
11 | C=C(C)n1c(=O)n(C(=O)CCCCC)c2ccc([N+](=O)[O-])cc21 [FD13] | – | – | – | 56% | – | – | – | – | comparable effects with that of Triciribine | –
12 | C=CC(=O)n1c(=O)n(C(=C)C)c2ccc([N+](=O)[O-])cc21 [FD6] | 18.2% | 24.2% | 30.4% | 10% | – | – | – | – | – | –
13 | C=C(C)n1c(=O)n(C(=O)c2ccccc2C)c2cc([N+](=O)[O-])ccc21 [FD18] | 11.5% | 32.1% | 44.2% | 42% | – | – | – | – | – | –
14 | C=C(C)C(=O)n1c(=O)n(C(=C)C)c2cc([N+](=O)[O-])ccc21 [FD7] | 34.1% | 22.6% | 34.1% | 6% | – | – | – | – | – | –
15 | C=C(C)n1c(=O)n(C(=O)CCCCC)c2cc([N+](=O)[O-])ccc21 [FD14] | 13.1% | 9% | 25.5% | 34% | – | – | – | – | – | –
16 | C=C(C)n1c(=O)n(C(=O)c2ccccc2C)c2ccc([N+](=O)[O-])cc21 [FD17] | 31.4% | 20% | 40.5% | 38% | – | – | – | – | – | –
17 | C=CC(=O)n1c(=O)n(C(=C)C)c2cc([N+](=O)[O-])ccc21 [FD5] | 22.3% | 29.1% | 7.3% | 20% | – | – | – | – | – | –
18 | C=C(C)n1c(=O)n(C(=O)CCC)c2ccc([N+](=O)[O-])cc21 [FD11] | – | – | – | 11% | 2.4% | 19.2% | 13.6% | – | – | –
